As a reminder, the melting point is the temperature of the solid-liquid transition. Regarding `CCOC(c1ccccc1)(c1ccccc1)C(C)CNC` (centres undefined), the melting point amounted to 85 °C.

In turn, `OC(c1cccc(Oc2ccccc2)n1)C(F)(F)F` (centres undefined) showed a melting point of 51.5 to 53.5 °C.

For the compound `CC(=O)Oc1ccc(C(=O)O)cc1C(=O)c1ccccc1`, the melting point lay within 162 to 163 °C.

In the case of `COc1ccc(C(O)CN(Cc2ccccc2)Cc2ccccc2)cc1C(N)=O` (centres undefined), the melting point fell in the range of 120 to 123 °C.

`CC(C)(C)c1ccccc1N1CCN(C(=O)CCC(=O)NS(C)(=O)=O)CC1` had a melting point of 89 to 90 °C.

Consider `CCOP(=O)(CC(=O)Nc1c(C(C)C)cccc1C(C)C)c1ccccc1` (centres undefined), for which the melting point is 170 to 173 °C.

For `CC1CN(Cc2ccccc2)c2c3c(nc4cccc(c24)O1)CCCC3` (centres undefined), the melting point lay within 152 to 153 °C.

`CC(C)Oc1cccc(-n2c(NC(=O)Nc3cccc(C(=O)O)c3)nc3ccccc3c2=O)c1` had a melting point of 158 to 160 °C.

`Nc1cc(=O)[nH]c(=O)n1-c1ccccc1` showed a melting point greater than 280 °C.

`COCOc1cc(F)ccc1-c1cc(-c2cccc([N+](=O)[O-])c2)c(C#N)c(NC(=O)c2ccno2)n1`: the melting point was 161 to 162 °C.

`CCCCC1OC(=O)c2cc([N+](=O)[O-])ccc21` (centres undefined) gave a melting point of 53 to 55 °C.

Turning to `CS(=O)(=O)c1cncc(-c2nc(=O)c3ccccc3s2)n1`, the melting point was 232 to 233 °C.

Take `O=C(O)CCNc1ccc2c(C(=O)NCC34CC5CC(CC(C5)C3)C4)c(Cl)ccc2n1`: the melting point was in the range of 251 to 252 °C.

Turning to `COC(=O)CN(C)C(=O)c1c2ccc(Cl)ccc-2[nH]c1=O`, the melting point lay in the range of 170 to 172 °C.

As for `CC1=C(C(=O)OC(C)(C)C)C(c2ccc(C)cc2C)C(C(=O)OC(C)(C)C)=C(C)N1`, the melting point was in the range of 197 to 198 °C.

With `CCCCc1nc(-n2cccc2)c(C(=O)OCC)[nH]1`, the melting point lay in the range of 74 to 77 °C.

In the case of `Cc1ccc(S(=O)(=O)Nc2cc3c(c(C(=O)O)c2)NCCO3)cc1`, the melting point was 213 to 215 °C.

In turn, `Cc1nc2cccnc2n(-c2ccc(F)cc2)c1=O` returned a melting point of 270 to 271 °C.

Consider `COc1ccccc1NC(=O)Nc1ccc(C2=CCN(C(=O)Nc3ccc(OCCO)cc3Cl)CC2)cc1`, for which the melting point fell in the range of 120 to 125 °C.

As for `CN(C)Cc1c[nH]c2ccc(CCS(=O)(=O)N(C)C)cc12`, the melting point was in the range of 156 to 159 °C.

`CC(C(=O)O)c1ccc(-c2nc3ccccc3o2)c(F)c1` (centres undefined): the melting point fell in the range of 168 to 171 °C.

Turning to `CCOCOC(=O)Cc1c(C)n(C(=O)c2ccc(Cl)cc2)c2ccc(OC)cc12`, the melting point lay in the range of 60 to 61 °C.

Consider `CC1=NC(NC(=O)Nc2cccc(C)c2)C(=O)N(CC(=O)c2ccccc2C)c2c(C)cccc21` (centres undefined), for which the melting point was in the range of 128 to 136 °C.

Compound `CC(C)(C)c1ccc(C(=O)Nc2ccc(OCCO)cc2)cc1` gave a melting point of 136 to 142 °C.

Compound `Cn1c2c(c3cccc(F)c31)C(=O)NCCC2` showed a melting point of 233 to 235 °C.

In turn, `COc1ccc2cc(COC(C)(C(=O)O)C(F)(F)F)ccc2c1` (centres undefined) showed a melting point of 117 to 119 °C.

For `COc1ccc(C(=O)c2c(N)sc3c2CCN(Cc2ccccc2)C3)cc1OC`, the melting point is 149 to 150 °C.

`COc1cc2c(c3c1OC(C)(C)C3)C(Nc1ccccc1)=NC(C)(C)C2` returned a melting point of 135 to 136 °C.

`CCC(=O)NC(C)(C)COc1cccc2nc(C)c(C(=O)O)c(N)c12` returned a melting point of 189 to 193 °C.

In turn, `CCn1cnc(Cl)c2nc(C3CC3)nc1-2` had a melting point of 140 to 145 °C.

Take `CCCCCCCC/C=C\CCCCCCCC(=O)OCC1(CO)CCC(=O)O1` (centres undefined): the melting point is 38.5 to 39.5 °C.

Compound `COc1ccc(CN(CCCNc2ncc(Cc3ccc(C)nc3)c(=O)[nH]2)c2ccccn2)cc1` gave a melting point of 90 to 98 °C.

`CN(C)CCCOc1ccnc2cc([N+](=O)[O-])ccc12` registered a melting point of 146 to 149 °C.

The compound `Cc1ccc(-c2ncncc2Br)cc1` showed a melting point of 81 to 82 °C.

Take `Oc1cc2cc3c(ccc4cc(O)c(O)cc43)nc2cc1O`: the melting point is greater than 270 °C.

The compound `CC(C)Cn1cnc2c(NN)nc3ccccc3c21` had a melting point of 202 to 205 °C.

With `CN(C)S(=O)(=O)n1cc(C(=O)c2c(Cl)cc(Cl)cc2Cl)nc1C#N`, the melting point lay within 142 to 150 °C.

`CC1(C)OC(c2ccc(S(C)(=O)=O)c(Br)c2)=C(c2ccccc2)C1=O` gave a melting point of 154 to 155 °C.

`CC(=O)NCCOc1cc(-c2ccccc2)on1` had a melting point of 144 to 145 °C.

`O=C(O)C1CCc2ccc([N+](=O)[O-])cc21` (centres undefined) came in with a melting point of 92 to 94 °C.

`CCc1ccccc1-n1ncc(C#N)c1N`: the melting point was found to be 130 °C.

On to `CCN(CCCP(=O)(O)O)S(=O)(=O)C(F)(F)C(F)(F)C(F)(F)C(F)(F)F`, for which the melting point lay within 138 to 140 °C.

Consider `CC1=NN(C(=O)NS(=O)(=O)c2ncccc2C(F)(F)F)C(C)(c2ccccc2)C1` (centres undefined), for which the melting point lay in the range of 152 to 153 °C.

Regarding `CCOC(=O)c1ccc(OCC2CN(c3nnc(C)s3)CCO2)cc1` (centres undefined), the melting point stood at 112 °C.

On to `Cc1cc(C2=NOC(c3cc(Cl)cc(Cl)c3)(C(F)(F)F)C2O)ccc1C(=O)O` (centres undefined), for which the melting point lay within 215 to 217 °C.

As to `CCc1nc(=O)c2cc3ccccc3nc2[nH]1`, the melting point lay in the range of 240 to 245 °C.

For `OCc1csc(Nc2ccccc2)n1`, the melting point fell in the range of 115 to 118 °C.

With `CC(C)(C)c1ccc(/C=C/C(=O)Nc2ccc3c(c2)NCC3)cc1`, the melting point was in the range of 153 to 167 °C.

With `CCCN(c1ccc(O)c(Cl)c1)S(=O)(=O)c1ccc(O)cc1`, the melting point is 138 to 140 °C.

`CN1COCN(Cc2ccc(Cl)nc2)C1=N[N+](=O)[O-]` yielded a melting point of 116 to 118 °C.

Consider `CCOC(=O)C1=C[C@@H](OC(CC)CC)[C@H](NC(C)=O)[C@@H](NC(=O)OC(C)(C)C)C1`, for which the melting point fell in the range of 144 to 145 °C.

`CC(C)(C)c1ccc(Cn2ccc3ccc(-c4ccc(C(F)(F)F)cc4)cc32)cc1` displayed a melting point of 134 to 135 °C.

In turn, `Cc1nnc(C(O)CCCCCCOc2ccccc2)o1` (centres undefined) gave a melting point of 50 to 52 °C.

`O=C1c2ccccc2C(=O)N1c1nc(Cl)nc(Cl)n1` came in with a melting point of 175 to 179 °C.

For the compound `O=C(O)c1ccc2c(c1)C=C(n1ccnc1)CC2`, the melting point fell in the range of 323 to 326 °C.

On to `CCC1=NN=C(CC)NN1`, for which the melting point was in the range of 118 to 120 °C.

For `COC(=O)CC1c2ccc(Cl)cc2NC(=O)C1[N+](=O)[O-]` (centres undefined), the melting point was 135 °C.

`CN1CC(CNC(=S)NC(=O)c2ccccc2)CC2c3cccc4[nH]cc(c34)CC21` (centres undefined) had a melting point of 153 to 155 °C.

In turn, `CC(C)CCCC(C)C1CCC2C3CC=C4CC(OCCCCCCI)CCC4(C)C3CCC12C` (centres undefined) yielded a melting point of 104 °C.

Compound `CN(CCCCNC(=O)NCCSCc1csc(NC(=N)N)n1)CCOC(c1ccccc1)c1ccccc1` showed a melting point of 101 °C.

With `Clc1ccc2c(c1)N=C(c1ccncc1)c1ccccc1O2`, the melting point was determined as 122 °C.

Compound `O=C(Nc1ccccc1)OC1CCN(C(=O)c2ccc(F)cc2)C1` (centres undefined) registered a melting point of 173 to 175 °C.

In the case of `Cn1nc(-c2ncc(Cl)cc2F)c(Cl)c1OC(F)F`, the melting point fell in the range of 95 to 96 °C.

Regarding `N#Cc1ccc(CCC(=O)C2CC2)cc1`, the melting point worked out at 76 °C.

`O=C(NC(=S)N1CCC(=O)C(C(c2ccccc2)c2ccccc2)C1)c1ccccc1` (centres undefined) gave a melting point of 168 to 169 °C.

Consider `CCCCCN1N=C(c2ccc(OCC)c(OCC)c2)[C@@H]2CCCC[C@@H]2C1=O` (relative stereo), for which the melting point fell in the range of 98 to 99 °C.

With `COC(=O)[C@@]12CN(Cc3ccccc3)C[C@@H]1[C@@](O)(c1ccc(SC)cc1)CC[C@H]2c1ccccc1` (racemic), the melting point is 124 to 126 °C.

For the compound `COc1ccc(NC(=O)N2CCCC2=O)cc1`, the melting point lay within 113 to 114 °C.

`Fc1ccc([C@H]2CC[C@H](N3CCN(Cc4ccccc4)CC3)CC2)c2ccccc12` had a melting point of 130 to 132 °C.

For the compound `Cc1nnc2n1-c1ccc(I)cc1C(c1ccccc1F)=NC2C` (centres undefined), the melting point fell in the range of 142 to 145 °C.

Compound `CS(=O)(=O)N[C@H]1CC[C@H](Nc2nccc(-n3ncc4ccccc43)n2)CC1` came in with a melting point of 270 °C.

On to `CCOCC1(O)c2ccccc2CCc2cc(OC)c(OC)cc21` (centres undefined), for which the melting point is 98 to 100 °C.

Compound `Cc1nnc(-c2ccc3occ(-c4ccc(S(C)(=O)=O)cc4Cl)c3c2)o1` returned a melting point of 198 to 199 °C.

As to `CC=C1c2ccccc2CC(=O)c2ccccc21`, the melting point was in the range of 93 to 95 °C.

`COc1ccc(CCCS(=O)(=O)c2ccc(S(N)(=O)=O)s2)cc1`: the melting point lay in the range of 136 to 138 °C.

The compound `C#CCOc1ccc(Cc2nnc(Cl)c3ccccc23)cc1` showed a melting point of 129 to 131 °C.

As to `O=C(O)c1ccc(OCc2ccccc2)c(OCc2ccccc2)c1`, the melting point fell in the range of 184 to 185 °C.

`Fc1ccc(Nc2ncnc3cnc(OC4CCOC4)nc23)cc1Cl` (centres undefined) yielded a melting point of 163 to 165 °C.

Compound `C#CCn1c(=O)c2c(nc(C#Cc3cccc(OC(C)=O)c3)n2C)n(C)c1=O` returned a melting point of 238 °C.

Compound `N#CN=C(Nc1cccnc1)NC1CCCCC1` yielded a melting point of 185 to 186 °C.

Compound `CCCSc1ncc(C(=O)N[C@@H](Cc2c[nH]cn2)C(=O)O)n1Cc1ccccc1Cl` displayed a melting point of 130 to 132 °C.

`O=C(O)c1cc(SCc2ccsc2)c(-c2ccccc2)c([N+](=O)[O-])c1`: the melting point was 159 to 161 °C.

With `O=C(O)C1C=CC=CC1(F)OC(Cc1c(CCNS(=O)(=O)Cc2ccc(Cl)c(Cl)c2)[nH]c2ccc(Cl)cc12)C(c1ccccc1)c1ccccc1` (centres undefined), the melting point was in the range of 117 to 119 °C.

For the compound `CC(C)C[C@@H](NC(=O)c1cnc(N2CCC(N3C(=O)OCc4ccccc43)CC2)c(Cl)c1)C(N)=O`, the melting point was in the range of 139 to 142 °C.

As for `COc1ccccc1C=C1NC(=S)NC1=O`, the melting point was 234 to 235 °C.

On to `O=C(Nc1ccc2ccc(-c3ccc(Cl)cc3)nc2n1)c1cccc(Br)c1`, for which the melting point lay within 220 to 224 °C.

For the compound `COc1cccc(NC(=O)C(C)Oc2ccc(Oc3ccc(C#N)cc3)cc2)c1` (centres undefined), the melting point is 118 to 120 °C.

As for `O=Cc1cnc(-c2ccccc2Cl)s1`, the melting point lay within 95 to 97 °C.

The compound `O=C(O)C1=Cc2cc(Cl)c(Oc3ccc(C(=O)O)cc3Cl)cc2OC1C(F)(F)F` (centres undefined) displayed a melting point greater than 300 °C.

(Values after a melting point compilation (Tetko et al.; mined from patent text by program, amines drawn as free bases though some values may be those of a salt).)
